{
  "source": "patent US10071080B2",
  "about": "“MIF inhibitors for the acute or chronic treatment of pulmonary hypertension” (MIFCARE, priority 2014, dated 2018)",
  "key": {"recombinant human MIF": {"molecular_target": "T1, recombinant human MIF (Homo sapiens, UniProt P14174)", "T1 construct": "purchased RayBiotech", "T1 sequence (P14174 2-115 limits assumed)": "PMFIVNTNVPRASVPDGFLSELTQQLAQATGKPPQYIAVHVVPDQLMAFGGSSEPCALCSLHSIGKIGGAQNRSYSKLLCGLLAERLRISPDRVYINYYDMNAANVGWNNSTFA", "experiment": "MIF tautomerase assay using 4-hydroxyphenylpyruvate (4-HPP)", "assay_type": "biochemical", "conditions": "for inhibition at 0.001 µM: compounds at 1 nM, substrate 4-HPP, compared to positive control with rhMIF alone", "description": "Tautomerase activity was assessed using 4-hydroxyphenylpyruvate (4-HPP) as substrate. 4-HPP was dissolved in 50 mM ammonium acetate at pH 6.0, allowed to equilibrate to room temperature and stored at −20° C. 300 ng/mL of recombinant human MIF (rhMIF; RayBiotech, Le Perray en Yvelines, France) and tested compounds were pre-incubated at room temperature for 15 min. Tautomerase activity was assessed at room temperature, by adding 4-HHP to a 96-well plate containing 0.435 M boric acid at pH 6.6 and rhMIF with or without (positive control) tested compounds (1 nM), and by measuring the increase in absorbance at 320 nm over 10-360 s using the 2103 EnVision™ Multilabel Plate Readers (PerkinElmer, Villebon-sur-Yvette, France). Compounds were tested at 1 nM. The assay was replicated 3 to 6 times independently."}, "[1]": {"tested_on": "iPAH P-ECs (human pulmonary endothelial cells)", "experiment": "MTT assay, cell proliferation and survival, iPAH P-ECs", "assay_type": "cell-based", "conditions": "iPAH EC, 24 h, effect significantly superior compared to ISO-1 (p<0.05); for cell survival: 0% FCS, at 100 μM and 50 μM", "description": "(§1) P-ECs were isolated and cultured from lung specimens of patients with idiopathic pulmonary arterial hypertension (iPAH) as previously described (Tu et al., Am J Respir Cell Mol Biol. 2012). The isolated P-ECs were strongly positive for acetylated low-density lipoprotein coupled to Alexa 488 (Alexa488-Ac-LDL), von Willebrand factor (vWF), CD31, and for Ulex europaeus agglutinin-1 (UEA-1) and negative for alpha-smooth muscle actin (α-SMA). DU-145 cell lines and iPAH ECs were grown in MCDB131 medium (Fisher, Illkirch Cedex, France) supplemented with 10% fetal calf serum (FCS), penicillin-streptomycin solution, glutamine, HEPES and amphotericine.\n(§2) To determine the impact of the compounds of the invention on the proliferation and the survival of DU-145 cell line and iPAH P-ECs, the methyl tetrazolium (MTT) assay was performed. To this aim, cells were plated in a 96-well plate and cultured in MCDB131 medium (Fisher, Illkirch Cedex, France) supplemented with 10% fetal calf serum (FCS) for 24 h. DU-145 and iPAH ECs monolayers were then washed and 50 or 100 μM of tested compounds were added with 0% (for cell survival assessment) or 10% (for cell proliferation assessment) of FCS for 24 h. Then, cells were incubated with 5 mg/mL of MTT for 6 h of incubation. At the end of the incubation time, medium was removed, dimethylsulfoxide (DMSO) was added in each well and absorbance was recorded at 590 nm using the microplate spectrophotometer system EnVision (PerkinElmer, Waltam, USA)."}, "DU-145 cell line": {"tested_on": "DU-145 cell line", "experiment": "MTT assay, cell proliferation and survival, DU-145", "assay_type": "cell-based", "conditions": "24 h, effect significantly superior compared to ISO-1 (p<0.05); for cell survival: 0% FCS, at 100 μM and 50 μM", "description": "as §1, §2"}, "MCT-injected rats": {"tested_on": "MCT-injected rats", "experiment": "Rodent model of pulmonary hypertension (monocrotaline)", "assay_type": "in vivo", "conditions": "for mean pulmonary arterial pressure (mPAP): 2 weeks; for degree of established PH: started one week after MCT", "description": "Animal studies were approved by the administrative panel on animal care at the Univ. Paris-Sud, Le Plessis-Robinson, France. Young male Wistar rats (100 g, Janvier Labs, France) were studied 3 weeks after a single subcutaneous injection of monocrotaline (60 mg/kg) (Sigma-Aldrich, Saint-Quentin Fallavier, France), or vehicle. One week after a single subcutaneous injection of monocrotaline (MCT), rats were randomly divided into several groups and treated for 2 weeks with • (example 3) daily intraperitoneal injections of ISO-1, compound 1 of the invention (M3), M41, or vehicle (vehicle A: 50% (v/v) DMSO (Dimethyl sulfoxide) in normal saline for i.v. administrations) at a dose of 10 mg·kg^−1·day^−1; or • (example 4) daily per os administration of compounds of the invention, or vehicle (vehicle B: 33% DMSO, 45% propylene glycol, 21% saline) at a dose of 30 mg·kg^−1·day^−1.\nAnimals were anesthetized with isoflurane. A polyvinyl catheter was introduced into the right jugular vein and pushed through the right ventricle into the pulmonary artery. Cardiac output in rat was measured using the thermodilution method. After measurement of hemodynamic parameters, the thorax was opened and the left lung immediately removed and frozen. The right lung was fixed in the distended state with formalin buffer. The right ventricular hypertrophy (RVH) index and the percentage of muscularized vessels were determined as previously described (Guignabert C 2009 J Faseb 23 (12): 4135-4147)."}, "[2]": {"conditions": "30 mg/kg oral daily, compared to MCT-injected rats treated with vehicle B, p<0.05"}, "[3]": {"conditions": "oral daily 30 mg/kg/day for 2 weeks"}, "[4]": {"conditions": "10 mg/kg daily intraperitoneal, compared to MCT-injected rats treated with vehicle A"}, "[5]": {"conditions": "daily intraperitoneal 10 mg/kg/day for 2 weeks, day 21"}},
  "data": [
    {"smiles": "Cc1ccc2oc(=S)n(Cc3ccc(F)c(O)c3)c2c1", "note": "[Compound 4, 3-(4-fluoro-3-hydroxybenzyl)-5-methylbenzo[d]oxazole-2(3H)-thione]", "values": [
      {"measurement": "inhibition at 0.001 µM", "setting": "recombinant human MIF", "result": 39, "unit": "%"},
      {"measurement": "cell survival", "setting": "[1]", "result": "decrease significantly cell survival"},
      {"measurement": "cell survival", "setting": "DU-145 cell line", "result": "decrease significantly cell survival"},
      {"measurement": "mean pulmonary arterial pressure (mPAP)", "setting": "MCT-injected rats; [2]", "result": "substantial reduction"},
      {"measurement": "degree of established PH", "setting": "MCT-injected rats; [3]", "result": "substantially attenuates the degree of established PH"}
    ]},
    {"smiles": "COC(=O)CC1CC(c2ccc(O)cc2)=NO1", "note": "(stereo not shown) [ISO-1, reference compound]", "values": [
      {"measurement": "inhibition at 0.001 µM", "setting": "recombinant human MIF", "result": 21, "unit": "%"},
      {"measurement": "mean pulmonary arterial pressure (mPAP)", "setting": "MCT-injected rats; [4]", "result": "substantial reduction in values of mPAP"}
    ]},
    {"smiles": "Cc1ccc2oc(=S)n(Cc3ccccc3)c2c1", "note": "[Compound 3, 3-benzyl-5-methylbenzo[d]oxazole-2(3H)-thione]", "values": [
      {"measurement": "inhibition at 0.001 µM", "setting": "recombinant human MIF", "result": 35, "unit": "%"}
    ]},
    {"smiles": "Oc1cc(Cn2c(=S)oc3ccc(C(F)(F)F)cc32)ccc1F", "note": "[Compound 5, 3-(4-fluoro-3-hydroxybenzyl)-5-(trifluoromethyl)benzo[d]oxazole-2(3H)-thione]", "values": [
      {"measurement": "inhibition at 0.001 µM", "setting": "recombinant human MIF", "result": 43, "unit": "%"},
      {"measurement": "cell survival", "setting": "[1]", "result": "decrease significantly cell survival"},
      {"measurement": "cell proliferation", "setting": "[1]; 10% FCS, 50 or 100 μM", "result": "inhibit significantly cell proliferation"},
      {"measurement": "cell survival", "setting": "DU-145 cell line", "result": "decrease significantly cell survival"},
      {"measurement": "cell proliferation", "setting": "DU-145 cell line; 10% FCS, 50 or 100 μM", "result": "inhibit significantly cell proliferation"},
      {"measurement": "mean pulmonary arterial pressure (mPAP)", "setting": "MCT-injected rats; [2]", "result": "substantial reduction"},
      {"measurement": "degree of established PH, compared with treatment by sildenafil", "setting": "MCT-injected rats; compound 5 at 30 mg/kg oral daily for 2 weeks, sildenafil at 100 mg/kg", "result": "substantially attenuates the degree of established PH"},
      {"measurement": "degree of established PH", "setting": "MCT-injected rats; [3]", "result": "substantially attenuates the degree of established PH"}
    ]},
    {"smiles": "COc1ccccc1Cn1c(=S)oc2ccc(C)cc21", "note": "[Compound 2, 3-(2-methoxybenzyl)-5-methylbenzo[d]oxazole-2(3H)-thione]", "values": [
      {"measurement": "inhibition at 0.001 µM", "setting": "recombinant human MIF", "result": 36, "unit": "%"}
    ]},
    {"smiles": "Cc1ccc2oc(=S)n(Cc3cccc(O)c3)c2c1", "note": "[Compound 1, 3-(3-hydroxybenzyl)-5-methylbenzo[d]oxazole-2(3H)-thione]", "values": [
      {"measurement": "inhibitory effect against the MIF tautomerase activity (in words)", "setting": "recombinant human MIF; compound 1 compared to benzoxazol-2-one analogue M41, compounds of the invention compared to ISO-1", "result": "good inhibitory effect"},
      {"measurement": "inhibition at 0.001 µM", "setting": "recombinant human MIF", "result": 41, "unit": "%"},
      {"measurement": "mean pulmonary arterial pressure (mPAP)", "setting": "MCT-injected rats; [4]", "result": "substantial reduction in values of mPAP"},
      {"measurement": "degree of established PH", "setting": "MCT-injected rats; [5]", "result": "substantially attenuates the degree of established PH"},
      {"measurement": "mPAP, compared to MCT-injected rats treated with ISO-1", "setting": "MCT-injected rats; same dose, 10 mg/kg, p=0.0855", "result": "higher beneficial effects in mPAP"}
    ]},
    {"smiles": "Cc1ccc2oc(=O)n(Cc3cccc(O)c3)c2c1", "note": "[Compound M41, reference compound]", "values": [
      {"measurement": "inhibition at 0.001 µM", "setting": "recombinant human MIF", "result": 29, "unit": "%"},
      {"measurement": "mortality rate", "setting": "MCT-injected rats; MCT-injected rats, 10 mg/kg/day intraperitoneal", "result": "5/6"},
      {"measurement": "degree of established PH", "setting": "MCT-injected rats; [5]", "result": "substantially attenuates the degree of established PH"}
    ]}
  ]
}
